“Also recorded” adds a separate entry of the source.
Key:
[1] = test system: bone marrow-derived macrophage (BMDM); test: Activation of BMDM with LPS or LPS+IFN-γ (cytokines, iNOS, HIF-1α); assay type: cell-based, mouse
Experimental: Cells were incubated with FcγR-blocking anti-CD16/32 (clone 93, Biolegend) before staining with antibodies to F4/80 (clone BM8, eBioscience) and CD11b (clone M1/70; BD Pharmingen) together with LIVE/DEAD dye (Invitrogen). […] Cells were acquired on a Canto II flow cytometer (BD Biosciences) and data were analyzed using FlowJo v.9.5.2 software (Tree Star).
(§1) The concentration of cytokines in culture supernatants was determined using the following kits according to manufacturer's instructions. DuoSet® kits for mouse IL-1β/IL-1F2, TNF-α and IL-6 (all R&D systems); mouse IL-12 ELISA MAX™ Deluxe Set (BioLegend); mouse IL-18 ELISA kit (MBL). Nitric oxide was quantified using Griess Reagent System (Promega).
(§2) BMDM were stimulated as indicated, washed with PBS, lysed in RIPA Lysis Buffer System (Santa Cruz) and boiled in sample loading buffer containing SDS and 100 mM DTT. Proteins were separated by electrophoresis through 4-20% polyacrylamide gradient gels (BioRad). After electrophoretic transfer of proteins onto PVDF membranes, nonspecific binding was blocked by incubation with 5% skim milk and membranes were probed with primary antibodies anti-IL1β (1:1000 dilution; 12507S, CellSignaling), NIrp3 (1:500 dilution; NBP2-12446, Novus), HIF-1α (1:500 dilution; NB100-449, Novus), α-tubulin (1:2000 dilution; 2125S, CellSignaling), ASC (1:1000 dilution; sc-22514-R, Santa Cruz) followed by incubation with secondary antibodies (horseradish peroxidase-conjugated anti-rabbit, 1:10,000 dilution; sc-2030, Santa Cruz) and visualized with Clarity™ western ECL substrate (Biorad).

[2] = test system: NLRP3 inflammasome in BMDM; test: NLRP3 inflammasome activation in BMDM (LPS priming + ATP, nigericin or MSU); assay type: cell-based, mouse; settings: for production of IL-18: then ATP 3 mM 45 min; for protein expression of pro-IL-1β: 0.25 mM 12 h
Experimental: as §1, §2

[3] = test system: AIM2-inflammasome in BMDM; test: AIM2-inflammasome activation in BMDM (poly dA:dT transfection); assay type: cell-based, mouse; settings: DI 12 h, 5 h
Experimental: as §1

[4] = test system: BMDM infected with S. typhimurium; test: In vitro infection of BMDM with Salmonella typhimurium; assay type: cell-based, mouse
unstimulated BMDM = test: Extracellular flux analysis (Seahorse); assay type: cell-based, mouse; settings: 0.25 mM DI 12 h
Experimental: Extracellular acidification rate (ECAR) and Oxygen Consumption rate (OCR) were measured in real time using Seahorse technology as described previously.

[5] = test system: myocardial ischemia-reperfusion injury; test: Myocardial ischemia-reperfusion model; assay type: in vivo, mice; settings: for myocardial infarct size: 30 min ischemia, 2 h reperfusion, intravenous infusion during ischemia
Experimental: In vivo ischemia-reperfusion modeling was performed as previously described. 8 to 10 week-old mice were anesthetized and subjected to an open chest procedure of reversible left anterior descending artery ligation for 30 min and subsequent reperfusion for 2 hours. Saline or DI (4 mg/Kg/min) was infused intravenously for 10 min before and throughout the ischemic period. A cardioplegic solution followed by TTC at 37° C. and then Evans Blue (after reocclusion of the LAD) was injected in a retrograde manner through the aorta in situ. The left ventricle was then sectioned into 5 slices and image analysis was performed with Image J (NIH).

[6] = test system: mitochondrial ROS in BMDM; test: Measurement of mROS (MitoSOX) in BMDM; assay type: cell-based, mouse; settings: 0.25 mM 12 h, LPS 100 ng/ml; MitoSOX flow cytometry
Experimental: Cells were incubated with DI (0.25 mM, 12 h) or vehicle and then loaded with 5 μM of the mitochondrial superoxide indicator MitoSOX (Invitrogen) at 37° C. for 30 min in HBSS supplemented with 0.1% BSA. Cells were then rinsed with warm culture medium and LPS treatment was started 1 h later. Cells were harvested and analyzed on a Canto II flow cytometer (Becton-Dickinson).

[7] = test system: bone-marrow derived macrophages; test: Cell viability of bone-marrow derived macrophages; assay type: cell-based, mouse
Experimental: Live cells were determined via flow cytometry using a live/dead cell fluorescent dye. Shown are representative data from three independent experiments.
Cells were incubated with FcγR-blocking anti-CD16/32 (clone 93, Biolegend) before staining with antibodies to F4/80 (clone BM8, eBioscience) and CD11b (clone M1/70; BD Pharmingen) together with LIVE/DEAD dye (Invitrogen). Intracellular iNOS was detected with mouse anti-NOS2 (clone C-11, Santa Cruz Biotechnology) followed by incubation with fluorochrome-conjugated anti-mouse IgG (Clone A85-1, BD Pharmingen) using the BD cytofix/cytoperm Kit (BD Biosciences) according to manufacturer's instructions. Cells were acquired on a Canto II flow cytometer (BD Biosciences) and data were analyzed using FlowJo v.9.5.2 software (Tree Star).

[8] = test system: naïve CD4 T cells under Th17 polarizing conditions; test: Th17 differentiation of naïve CD4 T cells; assay type: cell-based, C56BL/6 mice; settings: for frequency of IL-17-producing cells (Th17 differentiation): Th17 polarizing conditions; for frequency of IL-17-producing cells (Th17 differentiation) / cytotoxic effect (frequency of live CD4 T cells): flow cytometry; for cytotoxic effect (frequency of live CD4 T cells): day 4 after Th17 polarization
Experimental: FIG. 25C is a series of plots showing DI inhibits also the secretion of IL-17 (left) and GM-CSF (right) in the supernatant of CD4 T cells. On day 4 cells were collected, washed, and re-stimulated in equal numbers for each condition with anti-CD3 and anti-CD28. After 24 h supernatants were collected and assayed for IL-17 and GM-CSF by ELISA.

[9] = test system: anti-CD3-induced inflammation; test: Anti-CD3-induced inflammation in mice (serum IL-17); assay type: in vivo; settings: 4 mg or 20 mg DI ip, 48 h after anti-CD3, ELISA
Experimental: FIG. 26A is a plot showing DI-treatment diminished in vivo systemic IL-17 production. Circulating serum IL-17 levels were determined by ELISA 48 h after anti-CD3-induced inflammation in mice treated or not with the indicated doses of DI. Briefly, mice were received intraperitoneal (ip) injections of 4 mg (n=10) or 20 mg (n=5) DI or vehicle (PBS; shown as 0; n=10) 3 h prior (−3 h) to an anti-CD3 injection (given at 0 h ip) and every 20 h thereafter until mice were analyzed at 48 h.

[10] = test system: IMQ-induced skin inflammation; test: Imiquimod (IMQ)-induced psoriasis model; assay type: in vivo; settings: mouse ear skin, 20 mg DI ip daily, IMQ cream 7 days
Experimental: IMQ cream (5%) was applied on mouse ear skin for 7 days and skin pathology was assessed on day 8. Mice received 20 mg DI ip. (DI+IMQ) or vehicle ip (PBS; IMQ) was administered one day prior to IMQ application and every day thereafter until day 7. DI group: received 20 mg DI as above but no IMQ; naïve mice received vehicle as above but no IMQ.

[11] = test system: neonatal rat cardiac myocytes; test: Hypoxia modeling in neonatal rat cardiac myocytes; settings: NRCMs, hypoxia 24 h, DI pretreatment
Experimental: Neonatal rat cardiac myocytes were isolated and cultured as described. Cells were subjected to hypoxia in an oxygen control cabinet (Coy Laboratories, Grass Lake, Mich.) mounted within an incubator and equipped with oxygen controller and sensor for continuous oxygen level monitoring. […] Cell death was assessed with the Live-Dead Cytotoxicity Viability kit for Mammalian cells (Invitrogen) and ROS generation was monitored by flow cytometric assessment of carboxy-H2DCFDA fluorescence (following incubation in 10 μmol/L for 30 minutes), as previously described.

[12] = test system: bone marrow-derived macrophage (BMDM); test: RNA-seq transcriptional profiling of LPS-stimulated BMDM; settings: for pro-inflammatory transcripts / inflammatory markers (Nos2, II6, II12b etc.): 0.25 mM 12 h pretreatment, LPS 100 ng/ml 4 h
[13] = molecular target: T1, succinate dehydrogenase (Sdh) (Mus musculus, UniProt Q8K2B3); test: Sdh activity assay (Complex II Enzyme Activity Microplate Assay); assay type: biochemical; settings: Sdh purified from BV2 cells or BMDM
T1 construct: Sdh was purified from BV2 cells (a macrophage cell line) or BMDM; endogenous in cells; host or cells: BV2 cells (macrophage cell line) or mouse BMDM; in-well capture with the Abcam Complex II Enzyme Activity Microplate Assay Kit
T1 sequence (Q8K2B3 43-664): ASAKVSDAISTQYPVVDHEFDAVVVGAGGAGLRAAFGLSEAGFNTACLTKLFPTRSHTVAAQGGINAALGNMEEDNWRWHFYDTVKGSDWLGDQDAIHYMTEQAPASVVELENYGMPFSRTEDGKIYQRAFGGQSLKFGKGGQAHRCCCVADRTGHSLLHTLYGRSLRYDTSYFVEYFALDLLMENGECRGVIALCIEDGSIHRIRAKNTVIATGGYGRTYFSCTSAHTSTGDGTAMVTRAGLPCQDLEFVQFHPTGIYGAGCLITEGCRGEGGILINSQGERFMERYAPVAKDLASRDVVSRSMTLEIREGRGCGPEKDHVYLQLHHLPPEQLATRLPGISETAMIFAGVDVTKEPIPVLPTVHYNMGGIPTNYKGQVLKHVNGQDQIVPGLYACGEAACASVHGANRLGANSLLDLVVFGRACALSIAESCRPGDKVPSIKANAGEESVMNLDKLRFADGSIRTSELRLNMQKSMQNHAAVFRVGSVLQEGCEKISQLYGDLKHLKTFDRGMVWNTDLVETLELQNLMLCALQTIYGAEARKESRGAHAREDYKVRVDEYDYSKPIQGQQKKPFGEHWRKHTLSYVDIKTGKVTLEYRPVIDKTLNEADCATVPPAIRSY
T1 sequence (Q9CQA3 31-282 partner): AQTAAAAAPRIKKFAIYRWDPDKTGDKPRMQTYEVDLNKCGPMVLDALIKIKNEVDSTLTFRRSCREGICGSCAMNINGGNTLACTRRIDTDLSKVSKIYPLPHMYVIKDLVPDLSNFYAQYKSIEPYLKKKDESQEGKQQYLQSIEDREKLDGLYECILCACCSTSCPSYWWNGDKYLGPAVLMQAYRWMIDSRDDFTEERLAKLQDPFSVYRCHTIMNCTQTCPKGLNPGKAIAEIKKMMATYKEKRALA
T1 sequence (Q9CZB0 30-169 partner): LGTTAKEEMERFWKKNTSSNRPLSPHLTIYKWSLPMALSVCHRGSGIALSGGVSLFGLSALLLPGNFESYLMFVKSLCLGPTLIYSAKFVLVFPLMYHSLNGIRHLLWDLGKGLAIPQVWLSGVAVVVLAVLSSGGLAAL
T1 sequence (Q9CXV1 57-159 partner): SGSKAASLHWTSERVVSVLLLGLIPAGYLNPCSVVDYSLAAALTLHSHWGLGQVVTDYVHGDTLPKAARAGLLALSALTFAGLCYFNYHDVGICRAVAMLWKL
Experimental: The test compounds were diluted in activity buffer and added to the phospholipid mixture 5 min before adding the activity solution. Absorbance was measured at 600 nm.

[14] = test system: Mycobacterium tuberculosis (Mtb) H37Rv in BMDM; test: Infection of BMDM with Mycobacterium tuberculosis H37Rv; assay type: cell-based
Experimental: To address this question, BMMDs were infected with Mycobacterium tuberculosis (Mtb) H37Rv strain (MOI of 1). Three treatment groups were set up: untreated macrophages, macrophages pretreated with interferon, and macrophages pretreated with interferon and then treated with itaconate. The infection was then allowed to proceed for 7 days. On day 7 post infection, serial dilutions of infected BMDM homogenates were plated on 7H11 agar plates and colony forming unit (CFU) determined.

Salmonella infection = Salmonella infection in vivo; settings: treated vs untreated mice; i.v. administration
[15] = BMDM pretreated with DI (12 h; 0.25 mM), LPS 24 h
[16] = 12 h pretreatment, LPS 100 ng/ml 4 h
[17] = Western blot, LPS 4 h, ATP 45 min
[18] = Western blot, DI 0.25 mM 12 h, LPS 4 h, ATP 45 min
[19] = BMDM pre-treated with 0.25 mM DI 12 h, infected with live S. typhimurium
[20] = day 4 cells re-stimulated with anti-CD3 and anti-CD28, 24 h, ELISA

`C=C(CC(=O)OC)C(=O)OC` [DI, dimethyl itaconate] was tested, and the IL-12p70 secretion ([1]; BMDM pretreated with DI 12 h, then LPS and IFN-γ 24 h) was “suppressed”, the IL-6 secretion [1, 15] was “suppressed” and the TNF-α production [1, 15] was “remained unchanged”. The iNOS protein expression ([1]; BMDM pretreated with DI (12 h; 0.25 mM), then LPS and IFN-γ 24 h, flow cytometry) was “suppressed”, the “production of IL-18” value [2, 16] was “potently inhibited” and the “production of mature IL-1β” value ([2]; 12 h pretreatment, LPS 100 ng/ml 4 h, then ATP, nigericin or MSU) was “potently inhibited”. For the same compound, the inflammasome-induced cytotoxicity ([2]; DI 0.25 mM 12 h, LPS 4 h, ATP 3 mM 45 min, live/dead dye) was “only moderately”, the “protein expression of pro-IL-1β” value [2, 17] was “decreased” and the “protein expression of ASC” value [2, 18] was “decreased”. The “protein expression of NLRP3” value [2, 18] was “decreased”, the “IL-1β production following AIM-2-dependent inflammasome activation” value [3] was “impaired” and the TNF-α levels [4, 19] was “only marginally affected”. The “production of IL-1β” value [4, 19] was “virtually abrogated”, the “production of IL-6” value [4, 19] was “virtually abrogated” and the “production of nitric oxide (NO)” value [4, 19] was “virtually abrogated”. The “number of intracellular bacteria” value ([4]; DI-treated vs control BMDM, S. typhimurium) was “comparable”, the “extracellular acidification rate (ECAR)” value (unstimulated BMDM) was “increased” and the area-at-risk ([5]; DI vs saline group) was “similar”. The myocardial infarct size ([5]; mice) was “markedly reduced”, the “reduction in infarct size” value ([5]; mice, DI 4 mg/Kg/min i.v. 10 min before and throughout ischemia) was 42% and the “LPS-induced upregulation of mROS” value [6] was “impaired”. The “concentration up to which not toxic” value [7] was “up to 0.5 mM”, the “frequency of IL-17-producing cells (Th17 differentiation)” value [8] was “dose-dependently inhibits” and the “cytotoxic effect (frequency of live CD4 T cells)” value [8] was “moderate dose-dependent cytotoxic effect”. For the same compound, the “secretion of GM-CSF” value [8, 20] was “inhibits”, the “secretion of IL-17” value [8, 20] was “inhibits” and the “in vivo systemic IL-17 production (circulating serum IL-17)” value [9] was “diminished”. For the same compound, the dermal edema ([10]; H&E day 8) was “prevents dermal edema”, the IL-17 associated pathology ([10]; assessed day 8) was “limits IL-17 associated pathology” and the hypoxia-induced cell death [11] was “dose-dependent protection”. The “hypoxia-induced increase in ROS generation” value [11] was “attenuated”, the “pro-inflammatory transcripts / inflammatory markers (Nos2, II6, II12b etc.)” value [12] was “down-regulation” and the “expression of LPS-regulated genes involved in inflammasome function (II1b, II18, P2rx7, Casp1, Pycard)” value ([12]; DI 0.25 mM 12 h, LPS 4 h) was “modulated”.

With `C=C(CC(=O)O)C(=O)O` [itaconate, itaconic acid] the “protein expression of pro-IL-1β” value [2, 17] was “significantly decreased”, the “activity of purified Sdh” value [13] was “blocked the activity of Sdh in a dose-dependent manner” and the myocardial infarct size ([5]; mice) was “reduces infarct size”. The “LPS-induced upregulation of mROS” value [6] was “impaired”, the “bacterial burden in the cells (CFU)” value ([14]; BMDM pretreated with interferon, Mtb MOI of 1, day 7 post infection) was “increased” and the “II1b levels in the supernatants” value ([14]; Mtb-infected BMDM, data not shown) was “decreased”. The “frequency of IL-17-producing cells (Th17 differentiation)” value [8] was “dose-dependently inhibits”, the “inhibition of Th17 compared with structurally similar dicarboxylic acids” value ([8]; all acids at 5 mM, day 3 post polarization) was “structure specific” and the “cytotoxic effect (frequency of live CD4 T cells)” value [8] was “not cytotoxic”. The “mortality from Salmonella infection” value (Salmonella infection) was “succumb to Salmonella infection faster; also recorded: significantly accelerates mortality” and the “pro-inflammatory transcripts / inflammatory markers (Nos2, II6, II12b etc.)” value [12] was “significantly decreased”.

With `O=C(O)CC(=O)O` [malonate, reference compound] the “activity of purified Sdh” value [13] was “blocked the activity of Sdh in a dose-dependent manner” and the myocardial infarct size ([5]; mice) was “reduces infarct size”.

In the case of `COC(=O)CC(=O)OC` [dimethyl malonate, reference compound], the “production of IL-18” value [2, 16] is reported as “inhibited”.
